Results taken from BindingDB's records for doi:10.1021/cb500956g (University of North Carolina At Chapel Hill, 2015).

Tests used:
Assay in all cases: AlphaScreen Assay
Conditions in all cases: pH 8
[1] = target: T1, Chromobox protein homolog 7 (Homo sapiens, UniProt O95931)
T1 sequence (O95931 whole entry): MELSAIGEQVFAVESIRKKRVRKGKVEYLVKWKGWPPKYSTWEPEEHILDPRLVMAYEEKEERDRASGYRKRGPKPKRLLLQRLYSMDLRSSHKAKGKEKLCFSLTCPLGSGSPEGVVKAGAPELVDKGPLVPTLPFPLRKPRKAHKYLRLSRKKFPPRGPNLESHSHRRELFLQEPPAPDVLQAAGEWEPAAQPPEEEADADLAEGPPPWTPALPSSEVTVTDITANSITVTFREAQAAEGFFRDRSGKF
Protocol: (§1) In brief, compound plates (1 μL at 10 mM highest concentration; 3-fold, 10-point dilutions in DMSO) were diluted in 1X assay buffer (20 mM TRIS pH 8.0, 25 mM NaCl, 2 mM DTT and 0.05% Tween-20) to 1 mM using a Multimek robotic pipettor (Nanoscreen), and 1 μL was spotted into the wells of 384-well low-volume Proxiplates (PerkinElmer). To these plates was added 9 μL of protein−peptide mix in a 1X assay buffer by Multidrop (Thermo) to bring the final compound concentration to 100 μM, and this was incubated for 30 min at RT. Next, 2 μL of a 1:1 mixture of streptavidin-conjugate donor and nickel-chelate acceptor beads (45μg/mL in 1X assay buffer) were added, and the plates were allowed to incubate for an additional 30 min in the dark at RT. After incubation, the plates were read on an EnVision multilabel reader equipped with an HTS AlphaScreen laser (PerkinElmer).

PHD finger protein 1 = target: T2, PHD finger protein 1 (Homo sapiens, UniProt O43189)
T2 sequence (O43189 whole entry): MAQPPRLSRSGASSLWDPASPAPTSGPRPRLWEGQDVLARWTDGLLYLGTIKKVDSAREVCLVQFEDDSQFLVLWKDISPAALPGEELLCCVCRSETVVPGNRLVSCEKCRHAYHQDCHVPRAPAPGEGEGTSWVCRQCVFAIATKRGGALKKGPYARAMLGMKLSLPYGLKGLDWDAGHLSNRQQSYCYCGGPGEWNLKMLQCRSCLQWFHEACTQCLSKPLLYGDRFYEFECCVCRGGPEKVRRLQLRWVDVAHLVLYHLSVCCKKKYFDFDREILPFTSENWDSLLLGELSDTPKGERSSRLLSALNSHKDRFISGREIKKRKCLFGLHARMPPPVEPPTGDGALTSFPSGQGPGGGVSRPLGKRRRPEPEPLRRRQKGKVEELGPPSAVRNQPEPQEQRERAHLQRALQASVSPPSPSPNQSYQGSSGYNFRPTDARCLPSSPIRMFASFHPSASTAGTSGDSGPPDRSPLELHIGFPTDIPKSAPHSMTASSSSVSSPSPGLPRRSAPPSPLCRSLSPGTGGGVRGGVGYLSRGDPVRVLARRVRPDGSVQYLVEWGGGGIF
Protocol: as §1

[2] = target: T3, E3 ubiquitin-protein ligase UHRF1 (Homo sapiens, UniProt Q96T88)
T3 sequence (Q96T88 whole entry): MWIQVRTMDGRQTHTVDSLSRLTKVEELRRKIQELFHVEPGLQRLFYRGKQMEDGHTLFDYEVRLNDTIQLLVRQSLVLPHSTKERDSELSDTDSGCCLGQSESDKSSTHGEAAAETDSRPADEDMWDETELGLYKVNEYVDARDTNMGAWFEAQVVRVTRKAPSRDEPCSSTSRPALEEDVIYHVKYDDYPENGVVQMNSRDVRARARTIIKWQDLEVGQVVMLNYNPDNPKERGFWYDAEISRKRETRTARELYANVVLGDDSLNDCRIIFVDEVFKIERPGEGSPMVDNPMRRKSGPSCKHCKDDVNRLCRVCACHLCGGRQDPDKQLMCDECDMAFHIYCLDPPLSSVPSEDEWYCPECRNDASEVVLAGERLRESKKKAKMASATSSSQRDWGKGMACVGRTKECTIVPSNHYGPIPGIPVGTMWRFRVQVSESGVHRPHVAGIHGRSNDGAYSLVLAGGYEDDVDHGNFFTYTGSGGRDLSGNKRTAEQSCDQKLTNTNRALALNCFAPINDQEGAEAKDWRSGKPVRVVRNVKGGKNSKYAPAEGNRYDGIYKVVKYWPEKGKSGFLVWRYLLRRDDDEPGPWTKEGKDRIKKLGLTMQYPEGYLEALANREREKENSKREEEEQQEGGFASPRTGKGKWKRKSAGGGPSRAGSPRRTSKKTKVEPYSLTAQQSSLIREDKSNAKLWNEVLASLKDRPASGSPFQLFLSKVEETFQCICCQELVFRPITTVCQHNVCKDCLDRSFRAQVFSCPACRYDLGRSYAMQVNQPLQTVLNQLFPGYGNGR
Protocol: as §1

TP53-binding protein 1 = TP53-binding protein 1 (Homo sapiens, UniProt Q12888)
Protocol: as §1

PHD finger protein 23 = PHD finger protein 23 (Homo sapiens, UniProt Q9BUL5)
Protocol: as §1

[3] = target: Lysine-specific demethylase 5A (Homo sapiens, UniProt P29375)
Protocol: as §1

PHD finger protein 19 = PHD finger protein 19 (Homo sapiens, UniProt Q5T6S3)
Protocol: as §1

[4] = target: T4, Isoform 4 of Lethal(3)malignant brain tumor-like protein 1 (4) (Homo sapiens, UniProt Q9Y468)
T4 sequence (Q9Y468 whole entry): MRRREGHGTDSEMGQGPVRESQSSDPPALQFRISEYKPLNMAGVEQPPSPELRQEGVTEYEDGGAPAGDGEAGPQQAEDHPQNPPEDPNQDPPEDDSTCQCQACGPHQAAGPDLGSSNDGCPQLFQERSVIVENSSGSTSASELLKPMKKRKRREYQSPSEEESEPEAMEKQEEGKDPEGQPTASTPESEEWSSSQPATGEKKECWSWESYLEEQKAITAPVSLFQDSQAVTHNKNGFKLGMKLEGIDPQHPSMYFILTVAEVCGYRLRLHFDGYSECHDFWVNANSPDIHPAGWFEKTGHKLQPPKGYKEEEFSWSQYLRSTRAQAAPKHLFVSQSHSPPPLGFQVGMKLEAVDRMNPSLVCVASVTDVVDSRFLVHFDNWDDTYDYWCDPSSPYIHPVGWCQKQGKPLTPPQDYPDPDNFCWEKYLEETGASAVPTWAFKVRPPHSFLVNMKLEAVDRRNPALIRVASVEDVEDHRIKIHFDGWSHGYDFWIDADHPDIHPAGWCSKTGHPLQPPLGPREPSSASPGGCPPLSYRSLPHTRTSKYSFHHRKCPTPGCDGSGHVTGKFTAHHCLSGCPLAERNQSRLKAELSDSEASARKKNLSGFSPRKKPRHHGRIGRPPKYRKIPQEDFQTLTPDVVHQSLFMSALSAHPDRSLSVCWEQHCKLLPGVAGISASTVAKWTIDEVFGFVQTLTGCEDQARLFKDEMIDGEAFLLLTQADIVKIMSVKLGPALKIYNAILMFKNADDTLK
Protocol: as §1

Measured: IC50

Sequence of Lysine-specific demethylase 5A (P29375 whole entry): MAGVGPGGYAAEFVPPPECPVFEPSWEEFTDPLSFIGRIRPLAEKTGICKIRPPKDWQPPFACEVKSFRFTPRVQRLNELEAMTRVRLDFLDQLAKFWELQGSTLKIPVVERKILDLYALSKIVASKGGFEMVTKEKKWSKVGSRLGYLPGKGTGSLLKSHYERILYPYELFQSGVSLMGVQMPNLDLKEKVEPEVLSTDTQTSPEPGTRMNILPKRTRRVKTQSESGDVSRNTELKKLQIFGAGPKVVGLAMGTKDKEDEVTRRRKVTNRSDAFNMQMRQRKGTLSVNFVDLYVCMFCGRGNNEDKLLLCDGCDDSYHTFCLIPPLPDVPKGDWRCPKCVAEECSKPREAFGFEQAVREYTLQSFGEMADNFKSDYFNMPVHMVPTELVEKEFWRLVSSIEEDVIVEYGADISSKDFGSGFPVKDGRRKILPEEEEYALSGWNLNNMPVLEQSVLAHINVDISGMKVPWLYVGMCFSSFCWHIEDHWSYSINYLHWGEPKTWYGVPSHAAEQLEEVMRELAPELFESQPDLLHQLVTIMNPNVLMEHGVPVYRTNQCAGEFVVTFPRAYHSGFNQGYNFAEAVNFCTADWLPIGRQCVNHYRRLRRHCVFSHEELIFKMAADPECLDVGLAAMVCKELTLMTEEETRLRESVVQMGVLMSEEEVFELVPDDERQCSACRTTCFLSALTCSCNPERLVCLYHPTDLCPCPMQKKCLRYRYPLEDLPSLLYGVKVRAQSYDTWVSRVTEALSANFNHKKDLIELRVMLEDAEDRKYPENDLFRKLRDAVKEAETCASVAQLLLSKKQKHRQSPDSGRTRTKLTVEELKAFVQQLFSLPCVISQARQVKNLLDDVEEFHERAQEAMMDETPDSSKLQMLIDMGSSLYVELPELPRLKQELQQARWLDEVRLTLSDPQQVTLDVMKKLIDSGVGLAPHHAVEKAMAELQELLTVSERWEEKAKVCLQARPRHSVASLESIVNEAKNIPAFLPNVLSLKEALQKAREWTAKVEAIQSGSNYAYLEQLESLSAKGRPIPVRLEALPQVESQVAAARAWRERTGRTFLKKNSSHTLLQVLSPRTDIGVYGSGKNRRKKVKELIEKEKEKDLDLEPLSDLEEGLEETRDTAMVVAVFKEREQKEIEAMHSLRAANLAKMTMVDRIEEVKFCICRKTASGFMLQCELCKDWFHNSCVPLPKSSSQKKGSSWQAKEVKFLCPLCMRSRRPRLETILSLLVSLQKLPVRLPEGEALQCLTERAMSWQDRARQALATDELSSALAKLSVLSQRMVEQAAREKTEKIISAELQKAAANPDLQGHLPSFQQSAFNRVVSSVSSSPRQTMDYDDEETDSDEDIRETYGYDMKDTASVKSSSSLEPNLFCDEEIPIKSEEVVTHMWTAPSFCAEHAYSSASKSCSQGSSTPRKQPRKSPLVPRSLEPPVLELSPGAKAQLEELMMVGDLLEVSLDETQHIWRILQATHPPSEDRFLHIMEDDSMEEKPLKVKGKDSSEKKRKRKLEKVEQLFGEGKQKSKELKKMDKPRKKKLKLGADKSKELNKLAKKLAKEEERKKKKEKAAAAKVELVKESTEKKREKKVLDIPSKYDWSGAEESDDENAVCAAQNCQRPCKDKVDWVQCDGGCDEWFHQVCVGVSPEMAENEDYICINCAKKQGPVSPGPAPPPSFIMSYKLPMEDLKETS
Sequence of PHD finger protein 23 (Q9BUL5 whole entry): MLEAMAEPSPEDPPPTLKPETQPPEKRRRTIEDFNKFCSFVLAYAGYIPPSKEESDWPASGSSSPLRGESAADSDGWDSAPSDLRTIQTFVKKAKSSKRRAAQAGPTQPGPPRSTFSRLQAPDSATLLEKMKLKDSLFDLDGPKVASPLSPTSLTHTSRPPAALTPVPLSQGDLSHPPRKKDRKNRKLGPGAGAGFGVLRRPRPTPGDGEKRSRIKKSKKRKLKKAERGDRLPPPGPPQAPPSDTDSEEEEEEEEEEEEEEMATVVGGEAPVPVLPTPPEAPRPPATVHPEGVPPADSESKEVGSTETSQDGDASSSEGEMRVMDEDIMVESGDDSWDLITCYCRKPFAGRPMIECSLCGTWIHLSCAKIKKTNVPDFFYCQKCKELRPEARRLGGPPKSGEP
Sequence of TP53-binding protein 1 (Q12888 whole entry): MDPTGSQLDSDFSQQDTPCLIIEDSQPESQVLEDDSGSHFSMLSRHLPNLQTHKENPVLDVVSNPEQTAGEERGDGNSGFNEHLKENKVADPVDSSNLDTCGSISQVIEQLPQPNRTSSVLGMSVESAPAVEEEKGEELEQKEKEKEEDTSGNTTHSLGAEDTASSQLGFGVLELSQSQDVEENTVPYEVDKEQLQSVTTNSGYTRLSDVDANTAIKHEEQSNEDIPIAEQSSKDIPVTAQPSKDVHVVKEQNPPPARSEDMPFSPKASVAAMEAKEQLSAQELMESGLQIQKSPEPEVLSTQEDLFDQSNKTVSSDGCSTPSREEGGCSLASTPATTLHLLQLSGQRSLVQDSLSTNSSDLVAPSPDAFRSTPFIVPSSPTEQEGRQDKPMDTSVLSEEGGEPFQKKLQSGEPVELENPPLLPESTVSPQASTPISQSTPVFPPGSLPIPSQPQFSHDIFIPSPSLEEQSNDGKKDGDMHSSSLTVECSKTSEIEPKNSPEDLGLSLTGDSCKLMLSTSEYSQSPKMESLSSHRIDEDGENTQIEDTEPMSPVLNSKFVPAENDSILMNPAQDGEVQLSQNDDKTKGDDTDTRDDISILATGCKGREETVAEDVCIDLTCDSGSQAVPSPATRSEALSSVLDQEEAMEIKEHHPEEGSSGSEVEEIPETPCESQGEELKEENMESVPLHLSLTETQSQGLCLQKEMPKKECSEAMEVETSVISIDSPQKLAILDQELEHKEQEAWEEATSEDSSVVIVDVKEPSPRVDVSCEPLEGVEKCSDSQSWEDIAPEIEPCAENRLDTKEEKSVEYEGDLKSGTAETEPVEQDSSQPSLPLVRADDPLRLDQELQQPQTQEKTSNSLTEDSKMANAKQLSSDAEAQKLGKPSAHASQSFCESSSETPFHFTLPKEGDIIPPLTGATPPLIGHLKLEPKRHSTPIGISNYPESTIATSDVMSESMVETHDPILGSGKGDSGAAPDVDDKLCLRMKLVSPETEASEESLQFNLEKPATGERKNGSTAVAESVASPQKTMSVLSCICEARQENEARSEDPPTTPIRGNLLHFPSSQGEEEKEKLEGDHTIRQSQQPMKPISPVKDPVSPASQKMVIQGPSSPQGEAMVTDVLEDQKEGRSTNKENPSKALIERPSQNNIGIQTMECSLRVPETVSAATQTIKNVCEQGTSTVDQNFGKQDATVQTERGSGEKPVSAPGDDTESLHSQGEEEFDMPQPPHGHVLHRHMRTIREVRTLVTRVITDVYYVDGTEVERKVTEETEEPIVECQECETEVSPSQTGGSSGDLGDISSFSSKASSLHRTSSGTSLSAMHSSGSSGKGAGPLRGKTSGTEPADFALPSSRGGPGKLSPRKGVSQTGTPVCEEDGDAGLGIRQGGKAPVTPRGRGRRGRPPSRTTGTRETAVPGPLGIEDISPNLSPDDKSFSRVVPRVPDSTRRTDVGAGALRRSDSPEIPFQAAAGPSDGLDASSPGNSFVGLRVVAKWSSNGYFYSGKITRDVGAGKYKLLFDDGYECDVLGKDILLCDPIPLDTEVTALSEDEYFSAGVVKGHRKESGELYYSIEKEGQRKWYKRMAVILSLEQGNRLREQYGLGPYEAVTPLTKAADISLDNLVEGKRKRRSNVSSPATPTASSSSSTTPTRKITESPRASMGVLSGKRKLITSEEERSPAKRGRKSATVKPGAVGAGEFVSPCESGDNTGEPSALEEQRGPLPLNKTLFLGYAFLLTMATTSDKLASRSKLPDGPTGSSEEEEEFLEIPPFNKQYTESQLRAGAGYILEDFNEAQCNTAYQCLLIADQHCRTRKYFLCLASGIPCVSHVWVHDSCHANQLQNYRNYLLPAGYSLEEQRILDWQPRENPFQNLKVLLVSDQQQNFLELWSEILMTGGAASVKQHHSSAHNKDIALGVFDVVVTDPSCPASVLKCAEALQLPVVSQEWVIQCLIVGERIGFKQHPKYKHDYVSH

CC(C)(C)N1CCN(C(=O)c2cccc(Br)c2)CC1 [(3-Bromophenyl)(4-(tert-butyl)piperazin-1-yl)methanone (10)]
> 100 µM: all assays above

CC(C)(C)NCCCNC(=O)c1ccccc1Br [2-Bromo-N-(3-(tert-butylamino)propyl)benzamide (16)]
> 100 µM: all assays above

CC(C)(C)NCCCCCNC(=O)c1cccc(Br)c1 [3-Bromo-N-(5-(tert-butylamino)pentyl)benzamide (12)]
> 100 µM: all assays above

CC(C)(C)NCCCCNC(=O)c1cccc(Br)c1 [3-Bromo-N-(4-(tert-butylamino)butyl)benzamide (11)]
> 100 µM: all assays above

CC(C)(C)NCCCNC(=O)c1cc(Br)ccn1 [4-Bromo-N-(3-(tert-butylamino)propyl)picolinamide (24)]
> 100 µM: all assays above

CC(C)(C)NCCCNC(=O)c1cc(C(F)(F)F)ccn1 [N-(3-(Tert-butylamino)propyl)-4-(trifluoromethyl)picolinamide (25)]
> 100 µM: all assays above

CC(C)(C)NCCCNC(=O)c1ccc(Br)cc1 [4-Bromo-N-(3-(tert-butylamino)propyl)benzamide (15)]
> 100 µM: all assays above
